Test results from patent US20120225896A1, “NOVEL 2-PYRIDONE DERIVATIVE AND PHARMACEUTICAL PRODUCT CONTAINING SAME” (KOWA COMPANY, LTD., priority 2009, published 2012).
Where two headings read alike, the source gives them in different places.

Tests used:
human PPARγ2 = molecular target: T1, human PPARγ2 (Homo sapiens, UniProt P37231); experiment: PPARγ activation activity, Gal4-PPARγ2 LBD chimera luciferase transfection assay in COST cells; format: cell-based
T1 construct: the amino acids 182 to 505 of human PPARγ2; expressed in transfected cells; African green monkey kidney
T1 sequence (P37231 182-505): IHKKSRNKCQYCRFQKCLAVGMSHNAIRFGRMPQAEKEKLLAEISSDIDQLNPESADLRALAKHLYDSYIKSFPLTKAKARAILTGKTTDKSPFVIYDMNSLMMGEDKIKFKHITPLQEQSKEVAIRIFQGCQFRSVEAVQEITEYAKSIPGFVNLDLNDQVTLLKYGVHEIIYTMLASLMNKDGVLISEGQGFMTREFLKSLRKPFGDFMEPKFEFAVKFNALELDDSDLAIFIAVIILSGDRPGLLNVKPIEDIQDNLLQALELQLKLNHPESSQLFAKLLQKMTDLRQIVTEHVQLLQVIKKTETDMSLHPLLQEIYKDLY
T1 sequence (P04386 1-147 partner limits assumed): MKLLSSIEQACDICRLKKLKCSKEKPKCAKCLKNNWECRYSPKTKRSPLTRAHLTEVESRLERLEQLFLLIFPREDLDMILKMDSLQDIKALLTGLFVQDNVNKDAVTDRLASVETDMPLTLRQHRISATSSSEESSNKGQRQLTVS
Procedure: PPARγ Activation Activity
The agonistic activity of the compounds of the invention on PPARγ was measured based on the transfection assay using COST cells (DS Pharma Biomedical Co., Ltd., Osaka, Japan), which are the cell line derived from the kidney of the African green monkey. COST cells were cultured under 5% CO2 concentration, and DMEM medium containing 10% fetal bovine serum, glutamic acid, and antibiotics was used as a medium.
As an expression vector, a chimera in which DNA binding domain of Ga14, which is a yeast transcription factor, and ligand binding domain of human PPARγ2 are fused, i.e., a fused product between the amino acids 1 to 147 of Gal4 transcription factor and the amino acids 182 to 505 of human PPARγ2, was used. Furthermore, as a reporter vector, a firefly luciferase containing five copies of Gal4 recognition sequence in the promoter region was used. Plasmid transfection to the cells was performed according to a method which uses jetPEI (trade name, manufactured by Funakoshi Co., Ltd., Tokyo, Japan). Furthermore, β-galactosidase expression vector was employed as an internal standard.
After the transfection of the cells, the medium was replaced with a DMEM medium (containing 1% serum) added with the test compound, and the cells were further cultured for 16 hours. After that, the luciferase activity and β-galactosidase activity in the cell lysis solution were measured.
For the present test, dimethyl sulfoxide (DMSO) was used for dissolution and dilution of the test compounds, and during the cell treatment, the DMSO concentration in DMEM medium (containing 1% serum) was adjusted to 0.1%. The 50% effective concentration of the test compound (EC50, 50% effect concentration) was calculated by using SAS Preclinical Package Ver 5.0 (trade name, manufactured by SAS institute Japan Co., Tokyo, Japan), which is a statistical analysis program.
As shown in the Table 2, it was confirmed that the compounds of the present invention have a potent PPARγ activation activity. Under the same condition, the PPARγ activation activity of telmisartan, i.e., EC50, was 1 to 5 μM.

[1] = molecular target: T2, angiotensin II type 1 receptor (Oryctolagus cuniculus, UniProt P34976); experiment: Angiotensin II antagonistic activity in isolated rabbit blood vessels (angiotensin II-induced contraction of thoracic aorta ring); format: cell-based; conditions: angiotensin II (10 nM)-induced contraction, 37° C.
T2 construct: By using a specimen of isolated rabbit blood vessels; from tissue; host or cells: rabbit thoracic aorta ring (New Zealand White, male)
T2 sequence (P34976 1-359): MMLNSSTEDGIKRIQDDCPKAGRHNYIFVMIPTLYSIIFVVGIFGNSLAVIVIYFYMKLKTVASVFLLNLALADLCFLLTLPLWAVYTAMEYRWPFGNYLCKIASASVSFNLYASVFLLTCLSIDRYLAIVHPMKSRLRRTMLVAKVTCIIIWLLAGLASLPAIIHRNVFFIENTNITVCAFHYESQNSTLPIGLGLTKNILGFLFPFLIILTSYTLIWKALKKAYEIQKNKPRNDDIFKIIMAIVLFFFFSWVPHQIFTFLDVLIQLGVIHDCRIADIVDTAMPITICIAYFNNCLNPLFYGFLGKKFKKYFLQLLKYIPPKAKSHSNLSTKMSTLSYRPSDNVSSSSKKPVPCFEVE
Source text: Angiotensin II Antagonistic Activity in Isolated Rabbit Blood Vessels
By using a specimen of isolated rabbit blood vessels, antagonistic activity of the compounds of the invention against angiotensin II type 1 receptor was estimated from a dose-response curve of angiotensin II-induced blood vessel contraction. Specifically, the specimen of thoracic aorta ring of a rabbit (New Zealand White: male, 2.4 to 3.0 kg) was suspended in a magnus bath filled with Krebs-Henseleite buffer (composition: 118 mM NaCl, 4.7 mM KCl, 2.55 mM CaCl2, 1.18 mM MgSO4, 1.18 mM KH2PO4, 24.88 mM NaHCO3, and 11.1 mM D-glucose), and angiotensin II (10 nM)-induced contraction was obtained in the presence of the compounds of each example (1 nmol/L to 10 μmol/L). During the measurement, the inside temperature of the magnus bath was maintained at 37° C. and the bath was continuously ventilated with a sufficient amount of mixed gas (95% O2 and 5% CO2). The angiotensin II-induced contraction was converted into a relative value (%) that is based on the angiotensin II (10 nM)-induced contraction in the absence of the compounds of each example. From the concentration-response curve obtained therefrom, 50% inhibition concentration (IC50 value) was calculated by using SAS Preclinical Package Ver5.0 (trade name, manufactured by SAS institute Japan Co., Tokyo, Japan), which is a statistical analysis program.
As shown in the Table 1, it was confirmed that the compounds of the invention have a potent angiotensin II antagonistic activity.

[2] = COST cells transfected with Gal4 (aa 1-147)/human PPARγ2 (aa 182-505) chimera, luciferase reporter, 16 hours, read-out: EC50

Structure (SMILES) | EC50 (human PPARγ2; [2]) | IC50 [1] | EC50 (human PPARγ2)
CCCCCc1cc(C)n(Cc2ccccc2)c(=O)c1Cc1ccc(-c2ccccc2-c2nnn[nH]2)cc1 [Example 5, 3-{[2′-(1H-tetrazol-5-yl)biphenyl-4-yl]methyl}-1-benzyl-6-m ethyl-4-pentylpyridin-2(1H)-one] | 500 nM | – | –
CCCCc1cc(C)n(CCOC)c(=O)c1Cc1ccc(-c2ccccc2-c2nnn[nH]2)cc1 [Example 9, 3-{[2′-(1H-tetrazol-5-yl)biphenyl-4-yl]methyl}-4-butyl-1-(2-methoxyethyl)-6-methylpyridin-2(1H)-one] | 560 nM | 160 nM | –
CCCCc1cc(C)n(-c2ncc(OCC)cn2)c(=O)c1Cc1ccc(-c2ccccc2-c2nnn[nH]2)cc1 [Example 11, 3-{[2′-(1H-tetrazol-5-yl)biphenyl-4-yl]methyl}-4-butyl-1-(5-ethoxypyrimidin-2-yl)-6-methylpyridin-2(1H)-one] | 2220 nM | 330 nM | –
CCCCc1cc(C)n(-c2ncc(OCC)cn2)c(=O)c1Cc1ccc(-c2ccccc2-c2noc(=O)[nH]2)cc1 [Example 12, 3-{4′-{[4-butyl-1-(5-ethoxypyrimidin-2-yl)-6-methyl-2-oxo-1,2-dihydropyridin-3-yl]methyl}biphenyl-2-yl}-1,2,4-oxadiazol-5(4H)-one] | 590 nM | 460 nM | –
CCCCc1cc(C)n(-c2ncc(OC)cn2)c(=O)c1Cc1ccc(-c2ccccc2-c2noc(=O)[nH]2)cc1 [Example 14, 3-{4′-{[4-butyl-1-(5-methoxypyrimidin-2-yl)-6-methyl-2-oxo-1,2-dihydropyridin-3-yl]methyl}biphenyl-2-yl}-1,2,4-oxadiazol-5(4H)-one] | 1270 nM | 540 nM | –
CCCCc1cc(C)n(-c2ccccn2)c(=O)c1Cc1ccc(-c2ccccc2-c2nnn[nH]2)cc1 [Example 15, 3-{[2′-(1H-tetrazol-5-yl)biphenyl-4-yl]methyl}-4-butyl-6-methyl-1-(pyridin-2-yl)pyridin-2(1H)-one] | 1660 nM | 460 nM | –
CCCCc1cc(C)n(-c2ccccn2)c(=O)c1Cc1ccc(-c2ccccc2-c2noc(=O)[nH]2)cc1 [Example 16, 3-{4′-{[4-butyl-6-methyl-2-oxo-1-(pyridin-2-yl)-1,2-dihydropyridin-3-yl]methyl}biphenyl-2-yl}-1,2,4-oxadiazol-5(4H)-one] | 1400 nM | – | –
CCCOc1cc(C)n(Cc2ccccc2)c(=O)c1Cc1ccc(-c2ccccc2-c2nnn[nH]2)cc1 [Example 17, 3-{[2′-(1H-tetrazol-5-yl)biphenyl-4-yl]methyl}-1-benzyl-6-m ethyl-4-propoxypyridin-2(1H)-one] | 580 nM | – | –
CCCc1nc2c(C)cc(-c3nc4ccccc4n3C)cc2n1Cc1ccc(-c2ccccc2C(=O)O)cc1 [telmisartan, reference compound] | – | – | 1000 to 5000 nM

More lines, main results first:

EC50 (human PPARγ2; [2]) | IC50 [1] | Structure (SMILES) | EC50 (human PPARγ2)
400 nM | – | CCCCc1cc(C)n(Cc2ccccc2)c(=O)c1Cc1ccc(-c2ccccc2-c2nnn[nH]2)cc1 [Example 1, 3-{[2′-(1H-tetrazol-5-yl)biphenyl-4-yl]methyl}-1-benzyl-4-butyl-6-methylpyridin-2(1H)-one] | –
260 nM | – | CCCCc1cc(C)n(Cc2ccccc2)c(=O)c1Cc1ccc(-c2ccccc2-c2noc(=O)[nH]2)cc1 [Example 2, 3-{4′-[(1-benzyl-4-butyl-6-methyl-2-oxo-1,2-dihydropyridin-3-yl)methyl]biphenyl-2-yl}-1,2,4-oxadiazol-5(4H)-one] | –
320 nM | – | CCCc1cc(C)n(Cc2ccccc2)c(=O)c1Cc1ccc(-c2ccccc2-c2nnn[nH]2)cc1 [Example 3, 3-{[2′-(1H-tetrazol-5-yl)biphenyl-4-yl]methyl}-1-benzyl-6-m ethyl-4-propylpyridin-2(1H)-one] | –
200 nM | – | CCCc1cc(C)n(Cc2ccccc2)c(=O)c1Cc1ccc(-c2ccccc2-c2noc(=O)[nH]2)cc1 [Example 4, 3-{4′-[(1-benzyl-6-methyl-2-oxo-4-propyl-1,2-dihydropyridin-3-yl)methyl]biphenyl-2-yl}-1,2,4-oxadiazol-5(4H)-one] | –
260 nM | – | CCCCCc1cc(C)n(Cc2ccccc2)c(=O)c1Cc1ccc(-c2ccccc2-c2noc(=O)[nH]2)cc1 [Example 6, 3-{4′-[(1-benzyl-6-methyl-2-oxo-4-pentyl-1,2-dihydropyridin-3-yl)methyl]biphenyl-2-yl}-1,2,4-oxadiazol-5(4H)-one] | –
270 nM | 580 nM | CCCCc1cc(C)n(CCc2ccccc2)c(=O)c1Cc1ccc(-c2ccccc2-c2nnn[nH]2)cc1 [Example 7, 3-{[2′-(1H-tetrazol-5-yl)biphenyl-4-yl]methyl}-4-butyl-6-methyl-1-phenethylpyridin-2(1H)-one] | –
200 nM | 390 nM | CCCCc1cc(C)n(CCc2ccccc2)c(=O)c1Cc1ccc(-c2ccccc2-c2noc(=O)[nH]2)cc1 [Example 8, 3-{4′-[(4-butyl-6-methyl-2-oxo-1-phenethyl-1,2-dihydropyridin-3-yl)methyl]biphenyl-2-yl}-1,2,4-oxadiazol-5(4H)-one] | –
450 nM | 190 nM | CCCCc1cc(C)n(CCOC)c(=O)c1Cc1ccc(-c2ccccc2-c2noc(=O)[nH]2)cc1 [Example 10, 3-{4′-{[4-butyl-1-(2-methoxyethyl)-6-methyl-2-oxo-1,2-dihydropyridin-3-yl)methyl]biphenyl-2-yl}-1,2,4-oxadiazol-5(4H)-one] | –
140 nM | – | CCCOc1cc(C)n(Cc2ccccc2)c(=O)c1Cc1ccc(-c2ccccc2-c2noc(=O)[nH]2)cc1 [Example 18, 3-{4′-[(1-benzyl-6-methyl-2-oxo-4-propoxy-1,2-dihydropyridin-3-yl)methyl]biphenyl-2-yl}-1,2,4-oxadiazol-5(4H)-one] | –
